The record followed here is patent US9872493B2, “Method for promoting plant growth” (SUMITOMO CHEMICAL COMPANY, LIMITED, priority 2012, dated 2018).

Structures are written as SMILES.

One experiment relates to Nicotiana benthamiana. Kind of experiment: Test for evaluating growth promotion under low-temperature stress by hydroponics of Nicotiana benthamiana (Test Examples 4-6). The format is in vivo. Particulars: 7 days at 1.5±1.0° C. low-temperature stress, then 3 days at 22° C., green leaf area vs untreated control, read-out: value of a relative leaf area (equation (1)); for relative green leaf area after low-temperature stress at 1 ppm: compound at 1 ppm; for relative green leaf area after low-temperature stress at 10 ppm: compound at 10 ppm. The protocol:
A DMSO solution, which contained one of the compounds 5, 14, 22, 23, 24, 25, 26, 28, 30, 31, 32, 33, 34, 35, 38, 39 and 40 of the present invention at a concentration of 10,000 ppm, was prepared. The DMSO solution of the compound of the present invention was added at a volume ratio of 1/1,000 to the Murashige•Scoog medium of a ½-fold concentration (a medium containing 2.3 g of mixed salts (manufactured by Wako Pure Chemical Industries, Ltd.), 200 mg of Myo-inositol (manufactured by Sigma-Aldrich Co. LLC.), 2 mg of nicotinic acid (manufactured by Wako Pure Chemical Industries, Ltd.), 2 mg of pyridoxine hydrochloride (manufactured by Wako Pure Chemical Industries, Ltd.), 20 mg of thiamine hydrochloride (manufactured by Wako Pure Chemical Industries, Ltd.), 20 g of sucrose (manufactured by Wako Pure Chemical Industries, Ltd.), and 1 g of MES (manufactured by DOJINDO LABORATORIES) per 1 L of water and having pH adjusted to 5.8), thereby preparing a medium containing the compound of the present invention at a concentration of 10 ppm.
Seeds of Nicotiana benthamiana were seeded in the 5 μL of the medium and cultured overnight at 22° C. Thereafter, 45 μL of the medium containing the compound of the present invention at a concentration of 10 ppm was added thereto, and the seeds are cultivated for 7 days at 22° C., an illuminance of 4,000 lux, and a day length of 16 hours, thereby the nursery plants raised from the Nicotiana benthamiana were treated with the compound.
Moreover, instead of the above medium a test plot, which was obtained by performing the same treatment by using a medium prepared by adding DMSO to the Murashige•Scoog medium of ½-fold concentration at a volume ratio of 1/1,000, was used as a control plot not treated with the compound.
The nursery plants of the Nicotiana benthamiana treated with the compound were subjected to low-temperature treatment by being cultivated for 7 days at 1.5±1.0° C., an illuminance of 2,000 lux, and a day length of 16 hours.
The nursery plants of the Nicotiana benthamiana having undergone the low-temperature stress treatment were cultivated for 3 days at 22° C., an illuminance of 4,000 lux, and a day length of 16 hours. Thereafter, the area of green leaf was quantified by Scanalyzer HTS (manufactured by LemnaTec GmbH). Moreover, the value of the control plot not treated with the compound that had not yet been subjected to the low-temperature stress treatment was measured in the same manner. A value of a relative leaf area was calculated based on the following equation (1), and if the value of a relative leaf area was 5 or greater, the compound was evaluated to have a mitigating effect. As a result of the evaluation, it was confirmed that when the plant was treated with one of the compounds 5, 14, 22, 23, 24, 25, 26, 28, 30, 31, 32, 33, 34, 35, 38, 39 and 40 of the present invention at 10 ppm, the value of a relative leaf area was 5 or greater, compared to the area of green leaf of the control plot not treated with compound. Accordingly, it was confirmed that the treatment using the compound of the present invention brings about a growth promotion effect. Relative leaf area=100*(a green area of a plot treated with the compound of the present invention−a green area of a control plot not treated with the compound of the present invention)/(a green area of a control plot not treated with the compound of the present invention that has not yet been subjected to low-temperature stress treatment−a green area of a control plot not treated with the compound of the present invention) Equation (1): […]
A DMSO solution, which contained one of the compounds 6, 7, 8, 11, 12, 15, 19, 23, 24, 25, 28, 30, 31, 33, 34, 36, 37, 38 and 39 of the present invention at a concentration of 1,000 ppm, was prepared. […]

Experiment [1] concerns Rice (Variety: Nipponbare). Kind of experiment: Test for evaluating promotion of root growth by hydroponics of rice (Test Examples 1-3). Format: in vivo. On the procedure:
Rice (Variety: Nipponbare)
(§1) A DMSO solution, which contained one of the compounds 14, 18, 21, 23, 26, 28, 29, 30, 35, 36, 37, 39 and 40 of the present invention at a concentration of 100,000 ppm, was added to Hoagland hydroponic solution (Hoagland and Arnon, California Agricultural Experiment Station 1950 Circular 347 pp. 34) of ¼-fold concentration at a volume ratio of 1/10,000. In this manner, hydroponic solutions containing one of the compounds 14, 18, 21, 23, 26, 28, 29, 30, 35, 36, 37, 39 and 40 of the present invention at 10 ppm were prepared respectively. As an untreated control plot, a hydroponic solution obtained by adding DMSO to Hoagland hydroponic solution of ¼-fold concentration at a volume ratio of 1/10,000 was used.
Rice seeds were soaked in a 1% aqueous sodium hypochlorite solution for 10 minutes, then soaked in a 70% ethanol solution for surface sterilization, and then washed with distilled water. The sterilized seeds were soaked in a hydroponic solution containing the test compound described above at 10 ppm and incubated in a dark place for 3 days at 28° C. to perform treatment for hastening germination.
Thereafter, 30 ml of hydroponic solution containing the test compound at 10 ppm was dispensed in a plastic tube (diameter of 20 mm×height of 113 mm) of which the side was covered with cardboard to block light. A float prepared using a styrene board and vinyl mesh was floated, and the rice seeds that had undergone the treatment for hastening germination were placed on the float on the surface of the hydroponic solution. The seeds were cultivated for 3 days at 26° C., an illuminance of 4,000 lux of the top surface of the tube, a humidity of 50%, and a day length of 16 hours.
The nursery plants of rice obtained after cultivating were measured in terms of the length of seminal root by using WinRHIZO system (manufactured by Regent Instruments Inc). For each test plot, an average of the measured values of the seminal root of 4 or 5 individuals were determined.
as §1, with “compounds 7, 8, 9, 10, 12, 17, 20,” for “compounds 14, 18,”, “21, 25, 27,” for “21, 23, 26,”, “30, 34,” for “30,”, “37, 38,” for “37,”, “of 10,000” for “of 100,000”, “at 1” for “at 10”
Rice seeds were soaked in a 1% aqueous sodium hypochlorite solution for 10 minutes, then soaked in a 70% ethanol solution for surface sterilization, and then washed with distilled water. The sterilized seeds were soaked in a hydroponic solution containing the test compound described above at 1 ppm and incubated in a dark place for 3 days at 28° C. to perform treatment for hastening germination.
Thereafter, 30 ml of hydroponic solution containing the test compound at 1 ppm was dispensed in a plastic tube (diameter of 20 mm×height of 113 mm) of which the side was covered with cardboard to block light. A float prepared using a styrene board and vinyl mesh was floated, and the rice seeds that had undergone the treatment for hastening germination were placed on the float on the surface of the hydroponic solution. The seeds were cultivated for 3 days at 26° C., an illuminance of 4,000 lux of the top surface of the tube, a humidity of 50%, and a day length of 16 hours.
The nursery plants of rice obtained after cultivation were measured in terms of the length of seminal root by using WinRHIZO system (manufactured by Regent Instruments Inc). […]

Turning to `CCOC(=O)c1csc2c(C(F)(F)F)cccc12` [Compound 36], in the experiment with Nicotiana benthamiana (compound at 0.1 ppm), the relative green leaf area after low-temperature stress at 0.1 ppm is not below 5%. For the same compound, in the experiment on Nicotiana benthamiana, the relative green leaf area after low-temperature stress at 1 ppm was not below 5%. Also, the “length of seminal root compared with the untreated control plot (in words)” value in experiment [1] (0.1 ppm), in experiment [1] (1 ppm) and in experiment [1] (10 ppm) was “obviously longer” throughout.
In the case of `NC(=O)c1csc2c(C(F)(F)F)cccc12` [Compound 37], the relative green leaf area after low-temperature stress at 1 ppm in the experiment with Nicotiana benthamiana was not below 5%. The “length of seminal root compared with the untreated control plot (in words)” value in experiment [1] (0.1 ppm), in experiment [1] (1 ppm) and in experiment [1] (10 ppm) was “obviously longer” each time.
`CNC(=O)c1csc2c(C(F)(F)F)cccc12` [Compound 38]: in the experiment with Nicotiana benthamiana, the relative green leaf area after low-temperature stress at 1 ppm was not below 5% and the relative green leaf area after low-temperature stress at 10 ppm is not below 5%. Moreover, in experiment [1] (0.1 ppm), the “length of seminal root compared with the untreated control plot (in words)” value is “obviously longer”. In experiment [1] (1 ppm), the “length of seminal root compared with the untreated control plot (in words)” value is reported as “obviously longer”.
In the case of `O=C(Nc1ccccc1)c1csc2c(C(F)(F)F)cccc12` [Compound 39], the relative green leaf area after low-temperature stress at 1 ppm in the experiment with Nicotiana benthamiana is not below 5%. For the same compound, the relative green leaf area after low-temperature stress at 10 ppm in the experiment on Nicotiana benthamiana was not below 5%. Further, the “length of seminal root compared with the untreated control plot (in words)” value in experiment [1] (0.1 ppm), in experiment [1] (1 ppm) and in experiment [1] (10 ppm) was “obviously longer” each time.
In the case of `O=C(NCc1ccccc1)c1csc2c(C(F)(F)F)cccc12` [Compound 40], the relative green leaf area after low-temperature stress at 10 ppm in the experiment on Nicotiana benthamiana is not below 5%. Moreover, the “length of seminal root compared with the untreated control plot (in words)” value in experiment [1] (1 ppm) and in experiment [1] (10 ppm) was “obviously longer” each time.
